Key:
Test in all cases: relative viability (nuclei count vs DMSO), 5 days (fraction); higher = more cells survive
[1] = compound: C/C(=N\NC(=S)N1CCC1)/C2=CC=CC=N2 + CS(=O)(=O)CCNCc1ccc(-c2ccc3ncnc(Nc4ccc(OCc5cccc(F)c5)c(Cl)c4)c3c2)o1 [Lapatinib] (partner 2 µM)
Summary of the method: (§1)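 Relative viability was taken as the ratio of nuclei in treated wells to nuclei in vehicle wells. Lung cancer cell lines in 1536-well plates received compounds by pin tool one day after seeding, either one drug alone or a fixed anchor-drug dose plus five library-drug doses (not always all listed) in √10 steps. Nuclei were counted on 4× images after 5 days of treatment, and values are medians of duplicate plates.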

[2] = compound: C/C(=N\NC(=S)N1CCC1)/C2=CC=CC=N2 + C[C@@H](Oc1cc(-c2cnn(C3CCNCC3)c2)cnc1N)c1c(Cl)ccc(F)c1Cl [Crizotinib] (partner 1 µM)
Summary of the method: as §1

[3] = compound: C/C(=N\NC(=S)N1CCC1)/C2=CC=CC=N2 + Cc1cc(Nc2cc(N3CCN(C)CC3)nc(Sc3ccc(NC(=O)C4CC4)cc3)n2)n[nH]1 [Tozasertib] (partner 0.1 µM)
Summary of the method: as §1

[4] = compound: C/C(=N\NC(=S)N1CCC1)/C2=CC=CC=N2 + Nc1ncn([C@H]2C[C@H](O)[C@@H](CO)O2)c(=O)n1 [Decitabine] (partner 2 µM)
Summary of the method: as §1

Cell Line | relative viability ([1]; first compound 0.05 µM) | relative viability ([1]; first compound 0.1581 µM) | relative viability ([1]; first compound 0.5 µM) | relative viability ([1]; first compound 1.581 µM) | relative viability ([1]; first compound 5 µM) | relative viability ([2]; first compound 0.05 µM) | relative viability ([2]; first compound 0.1581 µM) | relative viability ([2]; first compound 0.5 µM) | relative viability ([2]; first compound 1.581 µM) | relative viability ([2]; first compound 5 µM) | relative viability ([3]; first compound 0.05 µM) | relative viability ([3]; first compound 0.1581 µM) | relative viability ([3]; first compound 0.5 µM) | relative viability ([3]; first compound 1.581 µM) | relative viability ([3]; first compound 5 µM) | relative viability ([4]; first compound 0.05 µM) | relative viability ([4]; first compound 0.1581 µM) | relative viability ([4]; first compound 0.5 µM) | relative viability ([4]; first compound 1.581 µM) | relative viability ([4]; first compound 5 µM)
HCC-366 | 0.0217 | 0.0257 | 0.0157 | 0.0217 | 0.0218 | 0.0857 | 0.0157 | 0.0133 | 0.0162 | 0.018 | 0.0183 | 0.0481 | 0.0208 | 0.0215 | 0.0265 | 0.103 | 0.0378 | 0.0365 | 0.035 | 0.0275
HCC-827 | 0.161 | 0.168 | 0.201 | 0.211 | 0.19 | 0.675 | 0.894 | 0.307 | 0.296 | 0.204 | 0.383 | 0.36 | 0.225 | 0.185 | 0.148 | 0.253 | 0.244 | 0.237 | 0.182 | 0.185
HOP-62 | 0.0752 | 0.0868 | 0.0479 | 0.0716 | 0.0698 | 0.218 | 0.626 | 0.0574 | 0.0819 | 0.0635 | 0.129 | 0.109 | 0.0803 | 0.104 | 0.0835 | 0.121 | 0.142 | 0.0886 | 0.106 | 0.117
IA-LM | 0.0819 | 0.067 | 0.0525 | 0.0618 | 0.0601 | 0.0891 | 0.0621 | 0.0599 | 0.0518 | 0.0471 |  |  |  |  |  |  |  |  |  | 
LC-2-ad | 0.113 | 0.122 | 0.106 | 0.112 | 0.122 | 0.226 | 0.207 | 0.198 | 0.171 | 0.143 | 0.253 | 0.244 | 0.23 | 0.171 | 0.207 | 0.267 | 0.244 | 0.204 | 0.227 | 0.22
LCLC-97TM1 | 0.0934 | 0.101 | 0.0997 | 0.0662 | 0.107 | 0.155 | 0.307 | 0.103 | 0.0898 | 0.119 | 0.193 | 0.218 | 0.105 | 0.128 | 0.165 | 0.0771 | 0.284 | 0.0691 | 0.0739 | 0.0762
LCLC-103H |  |  |  |  |  | 0.838 | 0.917 | 0.321 | 0.335 | 0.3 | 0.244 | 0.175 | 0.202 | 0.133 | 0.165 | 0.346 | 0.684 | 0.329 | 0.342 | 0.291
LK-2 | 0.171 | 0.25 | 0.201 | 0.144 | 0.199 | 0.197 | 0.255 | 0.266 | 0.226 | 0.215 | 0.166 | 0.139 | 0.157 | 0.147 | 0.149 | 0.0805 | 0.111 | 0.0805 | 0.0894 | 0.0937
LOU-NH91 | 0.399 | 0.434 | 0.487 | 0.383 | 0.357 | 0.515 | 0.471 | 0.476 | 0.45 | 0.472 | 0.38 | 0.411 | 0.366 | 0.313 | 0.367 | 0.625 | 0.626 | 0.579 | 0.462 | 0.495
LU99A | 0.153 | 0.132 | 0.136 | 0.128 | 0.172 | 0.23 | 0.0986 | 0.168 | 0.133 | 0.143 | 0.155 | 0.164 | 0.164 | 0.152 | 0.165 | 0.222 | 0.624 | 0.171 | 0.162 | 0.173
LXF-289 | 0.322 | 0.278 | 0.275 | 0.24 | 0.14 | 0.417 | 0.287 | 0.24 | 0.168 | 0.121 | 0.126 | 0.108 | 0.114 | 0.124 | 0.0738 | 0.274 | 0.356 | 0.198 | 0.236 | 0.158
NCI-H441 |  |  |  |  |  | 0.241 | 0.175 | 0.134 | 0.11 | 0.128 | 0.294 | 0.229 | 0.159 | 0.168 | 0.195 | 0.185 | 0.163 | 0.17 | 0.134 | 0.126
NCI-H1299 | 0.192 | 0.221 | 0.197 | 0.185 | 0.143 | 0.16 | 0.16 | 0.191 | 0.19 | 0.102 |  |  |  |  |  |  |  |  |  | 
NCI-H1395 | 0.314 | 0.424 | 0.355 | 0.315 | 0.412 |  |  |  |  |  | 0.389 | 0.347 | 0.359 | 0.34 | 0.328 | 0.331 | 0.36 | 0.357 | 0.354 | 0.377
NCI-H1563 | 0.626 | 0.61 | 0.573 | 0.598 | 0.623 | 0.604 | 0.557 | 0.526 | 0.553 | 0.527 |  |  |  |  |  |  |  |  |  | 
NCI-H1648 |  |  |  |  |  |  |  |  |  |  | 0.275 | 0.216 | 0.229 | 0.309 | 0.233 | 0.274 | 0.248 | 0.3 | 0.338 | 0.353
NCI-H1703 | 0.185 | 0.153 | 0.17 | 0.168 | 0.178 | 0.15 | 0.103 | 0.0957 | 0.115 | 0.0425 |  |  |  |  |  |  |  |  |  | 
NCI-H1792 | 0.371 | 0.38 | 0.179 | 0.193 | 0.104 | 0.38 | 0.453 | 0.245 | 0.186 | 0.108 |  |  |  |  |  | 0.333 | 0.172 | 0.102 | 0.0665 | 0.0895
NCI-H1793 | 0.192 | 0.169 | 0.165 | 0.146 | 0.197 |  |  |  |  |  | 0.164 | 0.209 | 0.152 | 0.136 | 0.126 | 0.276 | 0.193 | 0.218 | 0.138 | 0.166
NCI-H2228 | 0.144 | 0.162 | 0.136 | 0.0958 | 0.139 | 0.169 | 0.213 | 0.262 | 0.141 | 0.149 | 0.0977 | 0.114 | 0.126 |  | 0.116 |  |  |  |  | 
NCI-H2342 |  |  |  |  |  |  |  |  |  |  | 0.229 | 0.264 | 0.263 | 0.219 | 0.247 | 0.318 | 0.306 | 0.265 | 0.276 | 0.25
